# From patent US20160229835A1, “NOVEL PYRIDYLOXYACETYL TETRAHYDROISOQUINOLINE COMPOUNDS USEFUL AS NAMPT INHIBITORS” (ELI LILLY AND COMPANY, priority 2013, published 2016)
# Like-named read-outs stand apart in the source and are kept apart here.
# What was measured:
# Assay type in all cases: cell-based
# [1] = test system: CHP-212; experiment: Cell Proliferation Assay ±NA, CHP-212; details: Homo sapiens, CHP-212, autonomic ganglia, treatment time 72 hr
# Procedure: (§1) The purpose of this assay is to measure the ability of a compound to inhibit proliferation of endometrium, kidney, adrenal gland, and autonomic ganglia cancer cell lines dependent on the NAMPT-mediated NAD^+ formation in the presence or absence of NA (10 μM) in vitro. One day before the planned initiation of compound treatment portion of the assay, one vial of assay ready frozen cells is thawed, and the cells are grown overnight in the media as shown in Table 3 under 5% CO2 at 37° C. Then, the cell layer is briefly rinsed with 0.25% (w/v) Trypsin-0.038% (w/v) EDTA solution followed with the addition of 3.0 ml of Trypsin-EDTA solution. Once the cell layer is dispersed, 8.0 ml of complete growth medium (Table 3) is added and cells are aspirated by gently pipetting. The cell suspension is transferred to a centrifuge tube and centrifuged at 800-1000 rpm for 3-5 minutes. The supernatant is discarded using a vacuum pump. The cell pellet is suspended in a complete medium by gently pipetting. The cell numbers are counted and adjusted to the appropriate density (Table 3). […] The bottom of each plate is pasted with a white back seal and luminescence is recorded using a Flexstation 3 with the following settings: Luminescence and integration time of 500 ms.
# [2] = test system: TGW; experiment: Cell Proliferation Assay ±NA, TGW; details: autonomic ganglia, treatment time 48 hr
# Procedure: as §1
# [3] = test system: GOTO; experiment: Cell Proliferation Assay ±NA, GOTO; details: autonomic ganglia, treatment time 96 hr
# Procedure: as §1
# [4] = test system: HEC-1-A; experiment: Cell Proliferation Assay ±NA, HEC-1-A; details: Homo sapiens, endometrium, treatment time 72 hr, tested in a growth medium containing nicotinic acid
# Procedure: as §1
# [5] = test system: SNG-M; experiment: Cell Proliferation Assay ±NA, SNG-M; details: endometrium, treatment time 72 hr
# Procedure: as §1
# [6] = test system: COLO-684; experiment: Cell Proliferation Assay ±NA, COLO-684; details: Homo sapiens, COLO-684, endometrium, treatment time 72 hr
# Procedure: as §1
# [7] = test system: RL95-2; experiment: Cell Proliferation Assay ±NA, RL95-2; details: Homo sapiens, RL95-2, endometrium, treatment time 72 hr
# Procedure: as §1
# [8] = test system: A704; experiment: Cell Proliferation Assay ±NA, A704; details: Homo sapiens, A704, kidney, treatment time 72 hr
# Procedure: as §1
# [9] = test system: OS-RC-2; experiment: Cell Proliferation Assay ±NA, OS-RC-2; details: Homo sapiens, OS-RC-2, kidney, treatment time 72 hr
# Procedure: as §1
# [10] = test system: SN12C; experiment: Cell Proliferation Assay ±NA, SN12C; details: Homo sapiens, kidney, treatment time 72 hr
# Procedure: as §1
# [11] = test system: 786-0; experiment: Cell Proliferation Assay ±NA, 786-0; details: Homo sapiens, 786-0, kidney, treatment time 48 hr
# Procedure: as §1
# [12] = test system: TK10; experiment: Cell Proliferation Assay ±NA, TK10; details: Homo sapiens, TK-10, TK10, kidney, treatment time 72 hr
# Procedure: as §1
# [13] = test system: ACHN; experiment: Cell Proliferation Assay ±NA, ACHN; details: Homo sapiens, kidney, treatment time 72 hr
# Procedure: as §1
# [14] = test system: A498; experiment: Cell Proliferation Assay ±NA, A498; details: Homo sapiens, A498, kidney, treatment time 48 hr
# Procedure: as §1
# [15] = NA 0.0 μM, read-out: IC50 (μM) NA (0.0 μM)
# [16] = NA 10 μM, read-out: IC50 (μM) NA (10 μM)
structure (smiles),measurement,setting,value
"CC(C)(O)CS(=O)(=O)Nc1ccc2c(c1)CCN(C(=O)COc1cccnc1)C2 [Example 1, 2-Hydroxy-2-methyl-N-[2-[2-(3-pyridyloxy)acetyl]-3,4-dihydro-1H-isoquinolin-6-yl]propane-1-sulfonamide]",IC50,[1]; [15],0.07 µM
same,IC50,[1]; [16],0.07 µM
same,IC50,[2]; [15],0.01 µM
same,IC50,[2]; [16],0.01 µM
same,IC50,[3]; [15],0.02 µM
same,IC50,[3]; [16],0.02 µM
same,IC50,[4]; [15],> 2 µM
same,IC50,[4]; [16],> 2 µM
same,IC50,[5]; [15],0.02 µM
same,IC50,[5]; [16],0.02 µM
same,IC50,[6]; [15],0.03 µM
same,IC50,[6]; [16],> 2 µM
same,IC50,[7]; [15],0.02 µM
same,IC50,[7]; [16],0.02 µM
same,IC50,[8]; [15],0.37 µM
same,IC50,[8]; [16],> 2 µM
same,IC50,[9]; [15],> 2 µM
same,IC50,[9]; [16],> 2 µM
same,IC50,[10]; [15],0.06 µM
same,IC50,[10]; [16],0.05 µM
same,IC50,[11]; [15],0.07 µM
same,IC50,[11]; [16],0.04 µM
same,IC50,[12]; [15],0.22 µM
same,IC50,[12]; [16],0.21 µM
same,IC50,[13]; [15],0.11 µM
same,IC50,[13]; [16],> 2 µM
same,IC50,[14]; [15],1.84 µM
same,IC50,[14]; [16],> 2 µM
